In patent US11155580B2, “Modified proteins and methods of use thereof” (YALE UNIVERSITY, priority 2013, dated 2021):
Entries after “also recorded” stand apart in the source; their conditions may differ. Where no end group is shown, it is not given here. fluorescein = fluorescein label; rhodamine = not defined here; Rhod = not defined here

Columns and labels:
HeLa cells [1] = assay: Colocalization of rhodamine and fluorescein labeled miniature proteins and peptides; assay type: cell-based; conditions: 1 μM each, 30 min, 37° C.
Experimental: HeLa cells were treated with a mixture of rhodamine—(indicated by the superscript R) and fluorescein—(indicated by the superscript F)—labeled miniature protein or peptide (1 μM each) for 30 min at 37° C., washed, and then imaged using confocal microscopy. […] The remaining molecules show high fluorescence, and molecules sharing the same sequence (but different labels) show high degrees of overlap, with R>0.68. The amino acid sequence of Arg8 is provided in SEQ ID NO:68.
Colocalization between rhodamine and fluorescein labeled miniature proteins and peptides, or between rhodamine labeled miniature proteins and markers of endocytosis was completed using confocal microscopy. […] Alexafluor-488-transferrin was detected using a 488 nm laser and a 520 nm long pass filter; tetraethylrhodamine and Alexafluor-546-transferrin were detected using a 546 nm laser line and a 580 nm long pass filter, Hoescht 33342 was detected using a 405 nm laser line and a 450 nm long pass filter. […] The fraction of rhodamine signal overlapping with EGFP signal (R E G) was calculated using Mander's coefficient and automatic thresholding. […]

[2] = test system: HeLa cells transfected with pGR-mCherry and Rab5-GFP or Rab5Q79L-GFP; assay: GR-mCherry translocation in cells expressing Rab5-GFP or Rab5Q79L-GFP; assay type: cell-based; conditions: for effect of Rab5Q79L on ability to reach the cytoplasm / TR: overexpression of Rab5Q79L-GFP
Experimental: Cotransfected cells expressing Rab-GFP fusions and pGR-mCherry were identified via their characteristic pattern of green and red fluorescence. The translocation ratio was determined using median values of mCherry fluorescence within the nucleus and surrounding region using CellProfiler.
HeLa cells transfected for 24-36 hr with pGR-mCherry and either Rab5-GFP or Rab5Q79L-GFP were plated (10^4/well in […]) the day prior to experiments in 96 well glass bottom plates (Matrical). The cells were washed with HKR buffer and the nuclei labeled using Hoescht as above. […] The cells were incubated for a further 30 min at 37° C. before imaging. Cells that had been cotransfected with EGFP fusions were identified via their characteristic pattern of green and red fluorescence. To evaluate the extent of GR activation, epifluorescence images were obtained as described above, except the fluorescence of pGR-mCherry was also visualized using Zeiss Filter Set #43 (ex BP 545/25 nm, FT 570, em BP 605/70 nm).
(§1) The image analysis algorithm used by CellProfiler is customizable and contained within a ‘Pipeline’ that describes a series of image manipulation and evaluation steps, such as reading the image, adjusting the intensity, and identifying objects. Each step has several options. […] Using the image of Hoescht fluorescence and Otsu's method of automatic thresholding, nuclei were identified and segmented using 3 class thresholding. The middle class was assigned to background. Closely approximated objects were separated using ‘Laplacian of Gaussian’ modeling, and touching nuclei were divided using the ‘shape’ option. Nuclear regions were expanded by 2 μm to generate an enlarged region. The nuclear region was subtracted from enlarged region to generate a ring surrounding the nucleus (surround). The diameter of the surrounding region was chosen to be 2 μm larger than the nucleus, within the range (1-3 μm) used by previously reported high content screens (Ding et al., 1998, J Biol Chem. 273:28897-28905; Peeraniet al., 2007, EMBO J. 26:4744-4755). The ratio of the median intensities of the nuclear and surrounding region of the GFP or mCherry (as appropriate) image were collected for every cell examined. Those cells falling below a threshold of intensity (10% of the maximum intensity of the image) were discarded as ‘untransfected’. Typically, 20-60 transfected cells from 15-30 images were examined for each experimental condition.

U2OS(GIGI) cells = assay: GIGI in lysates, stably transfected U2OS(GIGI) cells; assay type: cell-based
Excerpt: RFUs are expressed±standard deviation (Excel). The maximum induction level is defined as RFUmax. Data were processed using Kaleidagraph and GraphPad Prism software. RFU=([I530]/[I580])−([I′530]/[I′580]) (1)
Y=Ymin+(Ymax−Ymin)/(1+10^logEC50-X) (2)

Saos-2(GIGT) cells = assay: GIGT high-content imaging in stably transfected Saos-2(GIGT) cells; assay type: cell-based, human
Experimental: Saos2(GIGT) cells were plated onto 384-well plates (2,500 cells/well) in 40 μL of full McCoy's 5A and allowed to adhere overnight. […] Following treatment, cells were fixed with 4% paraformaldehyde for 20 min at room temperature and washed with PBS. […] Translocation ratios were determined using Acapella high content imaging and analysis software, with a script that processed the images in a manner similar to the CellProfiler pipeline described in the Supporting Information. Each data point represents 30-60 images containing over 100 cells.

[3] = test system: HeLa cells transfected with GR-GFP; assay: GR-GFP translocation assay (cytosolic access of Dex-labeled molecules); assay type: cell-based; conditions: for effect of bafilomycin on TR: 200 nM bafilomycin pretreatment 1 h; for effect of bafilomycin on TR / effect of EIPA on TR / effect of dynasore on TR / effect of methyl-β-cyclodextrin (MβCD) on TR: then 1 μM; for translocation ratio (TR) / effect of EIPA on TR / effect of dynasore on TR / effect of methyl-β-cyclodextrin (MβCD) on TR: 30 min; for translocation ratio (TR): HeLa cells expressing GR-GFP; for effect of EIPA on TR: 50 μM EIPA pretreatment 30 min; for effect of dynasore on TR: 80 μM dynasore pretreatment 30 min; for effect of methyl-β-cyclodextrin (MβCD) on TR: 5 mM MβCD pretreatment 30 min
Experimental: HeLa cells transfected with pK7-GR-GFP were plated in Matrical plates as described above. To label nuclei, the media was replaced with HKR buffer containing 300 nM Hoescht and the cells incubated for 30 min at 37° C.
Cells were then analyzed as described above.
HeLa cells transfected with pK7-GR-GFP for 24-36 hr were plated (10^4/well in 200 μL) the day prior to experiments in 96 well glass bottom plates (Matrical). The media was replaced with HKR buffer containing 300 nM Hoescht and the cells incubated for 30 min at 37° C. […] The cells were incubated for a further 30 min at 37° C. before epifluorescence imaging using a Zeiss Axiovert 200M microscope fitted with a mRM digital camera, a 63×1.3NA PlanApo objective and an EXFO-Excite illumination source.
Uptake was allowed to proceed for an additional 30 min at 37° C. before analysis by epifluorescence images as described elsewhere herein.
as §1, with “The diameter of the surrounding region was chosen to be 2 μm larger than the nucleus, within the range (1-3 μm) used by previously reported high content screens (Ding et al., 1998, J Biol Chem. 273:28897-28905; Peeraniet al., 2007, EMBO J. 26:4744-4755).” left out

HeLa cells [4] = assay: HPLC analysis of cytosolic extracts prepared with streptolysin O; assay type: cell-based; conditions: HeLa cells treated with rhodamine labeled molecule
Experimental: To generate cytosolic extracts, HeLa cells were treated with streptolysin O (SLO), a well characterized bacterial toxin that creates pores in the plasma membranes of target cells (Walev et al., 2002, FASEB 16:237-239). […] Moreover, when the toxin is added to cultured cells at 4° C. and washed with PBS before raising the temperature to 37° C., pores are created only in the plasma membrane and the release of ER, golgi, or endolysosomal contents are avoided (Androlewicz et al., 1993, Proc Natl Acad Sci USA 90:9130-9134).
First, selective release of the cytoplasmic contents of HeLa cells using the published procedures was verified. HeLa cells were treated with 20 μg/mL SLO in PBS containing 5 mM DTT (20 min, 4° C.), washed (three PBS washes, 150 μL each), resuspended in PBS, and incubated at 37° C. for 15 min, after which 1.5 μM propidium iodide (PI), a marker of permeabilized cell membranes, was added.

HeLa cells [5] = assay: Colocalization with Alexa-488-transferrin (Tf488), live cell confocal microscopy; assay type: cell-based; conditions: 1 μM, 30 min
Experimental: To examine the colocalization of rhodamine labeled miniature proteins or peptides with Alexa-488-transferrin (Tf488), HeLa cells were plated (200 μl, 10^4 cells/well, 96 well glass bottom plates, Matrical) the day prior to experiments. The media was replaced with 150 μL Hepes-Krebs-Ringer's (HKR) buffer (140 mM NaCl, 2 mM KCl, 1 mM CaCl2, 1 mM MgCl2, 10 mM Hepes pH 7.4) containing 1 μM miniature protein or 25 nM Alexa-488-transferrin (Molecular Probes) and the cells incubated at 37° C. for 30 min. The cells were then rinsed twice with 200 μL, HKR buffer and nuclei were labeled by overlaying 200 μL HKR containing 300 nM Hoechst 33342 (Molecular Probes Cat. # H3570) for 5 minutes. Images of cells were acquired using a PerkinElmer LiveView spinning disk confocal microscope fitted with a 60×1.2 NA objective. Colocalization with Rab-GFP fusions was examined in an analogous way using HeLa cells transfected with the appropriate expression plasmid.
Colocalization between rhodamine and fluorescein labeled miniature proteins and peptides, or between rhodamine labeled miniature proteins and markers of endocytosis was completed using confocal microscopy. Live cell confocal microscopy was conducted using a PerkinElmer LiveView spinning disk confocal microscope fitted with heated microscope enclosure (maintained at 37° C.), a 60×1.2 NA objective, laser illumination, a Nipkow CSU-1× spinning disk, and a Hammamatsu CS9100 EMCCD camera operated using Velocity software. Alexafluor-488-transferrin was detected using a 488 nm laser and a 520 nm long pass filter; tetraethylrhodamine and Alexafluor-546-transferrin were detected using a 546 nm laser line and a 580 nm long pass filter, Hoescht 33342 was detected using a 405 nm laser line and a 450 nm long pass filter. Images were processed for presentation by using the ‘subtract background’ option and linear contrast adjustments in Image J. All adjustments were applied uniformly to the entire image. Colocalization analysis was performed using the JACOP plugin (Bolte and Cordelières, 2006), available on the ImageJ website. The fraction of rhodamine signal overlapping with EGFP signal (R E G) was calculated using Mander's coefficient and automatic thresholding. Pearson's correlation coefficient (R) was also obtained using the JACOP plugin.

cathepsin B = cathepsin B (Homo sapiens, UniProt P07858); assay: Resistance to acid proteases: cathepsin B; assay type: in vitro ADME; conditions: 50 pmol, 30 min, 37° C., pH 5
Experimental: 50 pmol aPPR, 5.2R, 5.3R, ZF5.3R, TatR (SEQ ID NO:67), or Arg8R (SEQ ID NO:68) were incubated with 5 pg cathepsin B, D, or L for 30 min at 37° C. in 10 μL of 20 mM sodium phosphate buffer (pH 5) containing 150 mM NaCl. At the end of the incubation, the reaction was stopped by adding 40 μL of a solution containing a 84:15:1 ratio of water:EtOH:TFA before analysis by HPLC.

Row | Substance | cell fluorescence (HeLa cells [1]) | effect of Rab5Q79L on ability to reach the cytoplasm / TR [2] | effect of bafilomycin on TR [3] | translocation ratio (TR) ([3]; 1 μM) | effect of EIPA on TR [3] | effect of dynasore on TR [3] | effect of methyl-β-cyclodextrin (MβCD) on TR [3] | material found in SLO cytoplasmic extracts (HPLC) (HeLa cells [4]) | also measured
1 | GPSQPTYPGDDAPVEDLIRFYNDLQQYLNVVTRHRYC^FLU-NH2 (GPSQPTYPGDDAPVEDLIRFYNDLQQYLNVVTRHRYC(fluorescein)-NH2) [aPPF] | low fluorescence |  |  |  |  |  |  |  | 
2 | K^DexGRKKRRQRRRPPQY-NH2 (K(dexamethasone)GRKKRRQRRRPPQY-NH2) [TatDex] |  | blocked the ability | completely blocked the increase in TR | 2.85±0.10 | reduced, to background levels | reduced, to background levels | reduced, to background levels |  | TR (GR-mCherry), Rab5Q79L-GFP expressing cells ([2]; 1 μM, 30 min, Rab5Q79L-GFP): 1.26±0.03; TR (GR-mCherry), Rab5-GFP expressing cells ([2]; 1 μM, 30 min, wild-type Rab5-GFP): 1.57±0.04; eGFP expression (U2OS(GIGI) cells; 1 μM, lysates): significant eGFP expression; translocation ratio (TR), GR★-GFP (Saos-2(GIGT) cells; 1 μM, 30 min, Saos-2(GIGT) cells): 2.28±0.24; increase in TR blocked by wortmannin ([3]; 200 nM wortmannin, 1 μM): 72%
3 | K^DexWYSCNVCGKAFVLSRHLNRHLRVHRRAT-NH2 (K(dexamethasone)WYSCNVCGKAFVLSRHLNRHLRVHRRAT-NH2; cysteine pairing not given here) [ZF5.3Dex] |  |  | reduced to background levels | 2.4±0.09 | reduced to background levels | reduced to background levels | reduced to background levels |  | EC50 fold lower than that of ZFN1-4Dex (U2OS(GIGI) cells): 70-80 fold; EC50 fold lower than that of wtZFDex (U2OS(GIGI) cells): 100 fold; EC50 (U2OS(GIGI) cells; Dex-labeled peptides, 24 h, lysates, read-out: EC50 (eGFP expression, GIGI)): 1.4 nM; GR★-GFP translocation (GIGT) compared with wtZF and all four ZFN domains (Saos-2(GIGT) cells; GIGT): significantly higher levels; cells expressing GR★-GFP with significant translocation ratios (Saos-2(GIGT) cells; GIGT): greater than 99%
4 | K^RhodGPSQPTYPGDDAPVEDLIRFYNDLQQYLNVVTRHRY-NH2 (K(rhodamine)GPSQPTYPGDDAPVEDLIRFYNDLQQYLNVVTRHRY-NH2; reading uncertain; also: printed as K^RhodGPSQPTYPGDDAPVEDLIRFYNDLQQYLNVVTRHRY-NH2) [aPPR] | low fluorescence |  |  |  |  |  |  | little to no fluorescent material; also recorded: little or no aPPR is observed | intracellular red fluorescent signal (HeLa cells [5]): little or no red fluorescent signal
5 | K^RhodWYSCNVCGKAFVLSRHLNRHLRVHRRAT-NH2 (K(Rhod)WYSCNVCGKAFVLSRHLNRHLRVHRRAT-NH2; cysteine pairing not given here; reading uncertain; also: printed as KRhodWYSCNVCGKAFVLSRHLNRHLRVHRRAT-NH2) [ZF5.3R] |  | unaffected |  |  |  |  |  | can be recovered from cytosolic extracts; also recorded: a single peak with the same retention time as the starting material | effect of wortmannin on TR ([3]; wortmannin treatment): unaffected; degradation by cathepsin B (HPLC) (cathepsin B): little or no degradation
